Measured values: US7588783B2, “Flavonoid derivative” (Merck Patent GmbH, priority 2003, dated 2009)
Values after ≈ are worked out from the molar mass of the structure shown.

Experiments:
arachidonic acid cascade = experiment: antiinflammatory activity, keratinocyte monolayer PGE2 model; type: cell-based
Method: In order to induce inflammation, keratinocytes are incubated with the pro-inflammatory substance phorbol myristate acetate (PMA) for 24 hours in 96-well plates (15,000 cells/well). The preincubated cells (final concentration of PMA 0.1 μg/ml) are incubated with 10^−6 M indometacin (positive control) or 0.2 mM [5-hydroxy-7-methoxy-2-(4′-methoxyphenyl)-4-oxo-4H-chromen-8-yl]sulfonic acid monoester for 24 hours. The negative control used is a control culture comprising no PMA. After incubation, the content of prostaglandin E2 (PGE2) in all three samples is determined by ELISA kits.

water solubility = type: physicochemical; settings: at 25° C.
[1] = test system: tissue inhibitor of metalloproteinase 1 precursor (TIMP1); experiment: cDNA array gene expression: TIMP1; type: cell-based, human; settings: detectable by cDNA array
Method: (§1) The influence on the expression of the said genes can be detected by means of a cDNA array.
(§2) The culture medium in cell cultures (human keratinocytes) is replaced by culture medium with (test) or without test substance (control). The cells are cultivated further for a defined time, harvested and frozen at −80°.
(§3) The RNA is extracted, where each culture comprises about 200 μg of RNA. The solution is adjusted to 1 μg/μl of RNA and treated with DNAse I in order to remove all DNA residues. The amount of RNA is adjusted to 2 μg/ml.
(§4) The mRNA is transcribed to cDNA ^32P-labelled samples and purified by chromatography.
(§5) The DNA sequences are immobilised on cDNA chip membranes and hybridised (overnight at 68° C). The membranes are washed intensively, and the radioactivity of each measurement point is measured. An increase in the radioactivity means upregulation of the corresponding RNA compared with the control.

[2] = test system: epican gene (hyaluronic acid receptor); experiment: cDNA array gene expression: epican gene; type: cell-based, human; settings: detectable by cDNA array
Method: as §1, §2, §3, §4, §5

transglutaminase = experiment: cDNA array gene expression in human keratinocytes: transglutaminase gene; type: cell-based; settings: detectable by cDNA array
Method: The influence on the expression of the said genes can be detected by means of a cDNA array. Expression of the Transqlutaminase Gene The culture medium in cell cultures (human keratinocytes) is replaced by culture medium with (test) or without test substance (control). The cells are cultivated further for a defined time, harvested and frozen at −80°. The RNA is extracted, where each culture comprises about 200 μg of RNA. The solution is adjusted to 1 μg/μl of RNA and treated with DNAse I in order to remove all DNA residues. The amount of RNA is adjusted to 2 μg/ml. The mRNA is transcribed to cDNA ^32P-labelled samples and purified by chromatography. The DNA sequences are immobilised on cDNA chip membranes and hybridised (overnight at 68° C). The membranes are washed intensively, and the radioactivity of each measurement point is measured. An increase in the radioactivity means upregulation of the corresponding RNA compared with the control.

solubility (water solubility): 21 mg/mL (≈ 53.3 mM)
synthesis of tissue inhibitor of metalloproteinase 1 precursor (TIMP1) [1]: induces the synthesis
expression of the epican gene (hyaluronic acid receptor) [2]: induces the expression
gene expression of transglutaminase (transglutaminase): induction of gene expression
SMILES: COc1ccc(-c2cc(=O)c3c(O)cc(OC)c(OS(=O)(=O)O)c3o2)cc1 [[5-hydroxy-7-methoxy-2-(4′-methoxyphenyl)-4-oxo-4H-chromen-8-yl]sulfonic acid monoester]
effect on the arachidonic acid cascade (antiinflammatory action) (arachidonic acid cascade): inhibits the arachidonic acid cascade
